# B1: ZEN lactonase ZenARe of Rhodococcus erythropolis PFA D8-1 (enzyme)
# chain: MAEEGTRSEAADAATQARQLPDSRNIFVSHRFPERQVDLGEVVMNFAEAGSPDNPALLLLPEQTGSWWSYEPVMGLLAENFHVFAVDIRGQGRSTWTPRRYSLDNFGNDLVRFIALVIKRPVVVAGNSSGGLLAAWLSAYAMPGQIRAALCEDAPFFASELVPAYGHSVLQAAGPAFELYRDFLGDQWSIGDWKGFVEAAKASPAKAMQLFPTPDEAPQNLKEYDPEWGRAFFEGTVALHCPHDRMLSQVKTPILITHHARTIDPETGELLGALSDLQAEHAQDIIRSAGVRVDYQSHPDALHMMHLFDPARYAEILTSWSATLPAND
# B2: ZEN lactonase ZenA_(Scfl) of Streptomyces coelicoflavus (enzyme)
# chain: MVTSPALRDVHVPHAYPEQQVDLGEITMNYAEAGDPDRPAVLLIPEQTGSWWSYEEAMGLLSEHFHVYAVDLRGQGRSSWTPKRYSLDNFGNDLVRFIALVVKRPVVVAGNSSGGVLAAWLSAYSMPGQLRGVLCEDPPFFASELVPAHGHSVRQGAGPVFELFRTYLGDQWSVGDWEGFCRAAGASASPMARSFVADGIPQHLQEYDPEWARVFYEGTVGLSCPHERMLGQVKTPVLLTHHMRGIDPETGNLLGALSDEQALRARRLMDSAGVTVDYESVPDASHMMHQSAPARYVEIFTRWAAALAP
# How the values were obtained:
# [1] = molecular target: T1, ZenARe; test: X-ray crystal structure (cocrystallized with ZEN, […] Å); stopped-flow tryptophan fluorescence of product binding ([…] °C, KP,net); parameters: species or system Rhodococcus erythropolis
# T1 construct: gene zenA; C-terminal 6xHis-tag
# [2] = molecular target: T2, ZenAScfl H286Y (Streptomyces coelicoflavus, UniProt A0A6N9UBA7, H286Y); test: X-ray crystal structure, cocrystallized with […] ZEN, […] Å; assay type: binding
# T2 construct: gene G3I46_00910; C-terminal 6xHis-tag
# [3] = molecular target: T1, ZenARe; test: stopped-flow tryptophan fluorescence ([…] °C, net dissociation constant of two-step binding); steady-state KM […]; parameters: species or system Rhodococcus erythropolis
# [4] = molecular target: the molecule itself; test: SEC-MALS; size exclusion chromatography and multiangle light scattering of the 6xHis-tagged enzyme; conditions in the Supporting Information
# T2 sequence (A0A6N9UBA7 entry or part of it H286Y): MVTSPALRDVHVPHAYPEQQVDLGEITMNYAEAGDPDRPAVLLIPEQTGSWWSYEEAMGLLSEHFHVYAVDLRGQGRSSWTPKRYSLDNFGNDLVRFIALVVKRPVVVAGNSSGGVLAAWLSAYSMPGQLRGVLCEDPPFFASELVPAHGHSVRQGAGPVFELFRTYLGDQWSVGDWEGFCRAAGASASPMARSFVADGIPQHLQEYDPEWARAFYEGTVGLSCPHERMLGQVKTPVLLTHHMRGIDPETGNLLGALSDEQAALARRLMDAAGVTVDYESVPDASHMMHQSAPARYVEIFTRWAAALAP
molecule,measurement,setting,value
"C[C@H](O)CCCC(=O)CCC/C=C/c1cc(O)cc(O)c1C(=O)O [HZEN, (S,E)-2,4-dihydroxy-6-(10-hydroxy-6-oxoundec-1-en-1-yl)benzoic acid]",Kd,[1],10 ± 1 µM
same,"X-ray crystal structure, cocrystallized with 5 mM ZEN, 1.53 Å",[2],a subsequently calculated Polder map revealed a better fit of product HZEN in the active site
"C[C@H]1CCCC(=O)CCC/C=C/c2cc(O)cc(O)c2C(=O)O1 [ZEN, (S,E)-14,16-dihydroxy-3-methyl-3,4,5,6,9,10-hexahydro-1H-benzo[c][1]oxacyclotetradecine-1,7(8H)-dione]",Kd,[3],0.21 ± 0.04 µM
B1,stoichiometry N,[4],2
B2,stoichiometry N,[4],4

# From article PMC10913051, “Bacterial Lactonases ZenA with Noncanonical Structural Features Hydrolyze the Mycotoxin Zearalenone” (ACS Catalysis, 2024)
